The values below come from the NIST ThermoML archive (doi:10.1016/j.fluid.2011.11.023).

± gives the expanded uncertainty stated by the source.

The conditions of the data set: Crystal; visual observation.

For `Nc1cccnc1` [β-aminopyridine], the Normal melting temperature is 64.50 ± 0.5 °C.
